Assay [1] addresses T1, human recombinant wild-type ALK kinase domain (amino acids 1093-1411) (Homo sapiens, UniProt Q9UM73).
T1 construct: ALK kinase domain (amino acids 1093-1411); made in house
The assay is described as follows: ALK enzyme assay 2 (microfluidic mobility shift assay).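 Note: kinase reaction run 1 h at room temperature, conversion quantified by electrophoretic separation of fluorescent peptide substrate from phosphorylated product, about 15-20% turnover without inhibitor.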 The format is biochemical.
Protocol: The reactions were incubated for 1 h at room temperature, stopped by the addition of 0.1 M EDTA, pH 8, and the extent of reactions (˜15-20% conversion with no inhibitor) was determined after electrophoretic separation of the fluorescently labeled peptide substrate and phosphorylated product on an LabChip EZ Reader II (Caliper Life Sciences, Hopkinton, Mass.).

In assay [2] the target is EML4-ALK wt v1 in NIH-3T3 cells (Homo sapiens, UniProt Q9UM73).
EML4-ALK wt v1 in NIH-3T3 cells, sequence (Q9UM73 with tags, fused parts or gaps): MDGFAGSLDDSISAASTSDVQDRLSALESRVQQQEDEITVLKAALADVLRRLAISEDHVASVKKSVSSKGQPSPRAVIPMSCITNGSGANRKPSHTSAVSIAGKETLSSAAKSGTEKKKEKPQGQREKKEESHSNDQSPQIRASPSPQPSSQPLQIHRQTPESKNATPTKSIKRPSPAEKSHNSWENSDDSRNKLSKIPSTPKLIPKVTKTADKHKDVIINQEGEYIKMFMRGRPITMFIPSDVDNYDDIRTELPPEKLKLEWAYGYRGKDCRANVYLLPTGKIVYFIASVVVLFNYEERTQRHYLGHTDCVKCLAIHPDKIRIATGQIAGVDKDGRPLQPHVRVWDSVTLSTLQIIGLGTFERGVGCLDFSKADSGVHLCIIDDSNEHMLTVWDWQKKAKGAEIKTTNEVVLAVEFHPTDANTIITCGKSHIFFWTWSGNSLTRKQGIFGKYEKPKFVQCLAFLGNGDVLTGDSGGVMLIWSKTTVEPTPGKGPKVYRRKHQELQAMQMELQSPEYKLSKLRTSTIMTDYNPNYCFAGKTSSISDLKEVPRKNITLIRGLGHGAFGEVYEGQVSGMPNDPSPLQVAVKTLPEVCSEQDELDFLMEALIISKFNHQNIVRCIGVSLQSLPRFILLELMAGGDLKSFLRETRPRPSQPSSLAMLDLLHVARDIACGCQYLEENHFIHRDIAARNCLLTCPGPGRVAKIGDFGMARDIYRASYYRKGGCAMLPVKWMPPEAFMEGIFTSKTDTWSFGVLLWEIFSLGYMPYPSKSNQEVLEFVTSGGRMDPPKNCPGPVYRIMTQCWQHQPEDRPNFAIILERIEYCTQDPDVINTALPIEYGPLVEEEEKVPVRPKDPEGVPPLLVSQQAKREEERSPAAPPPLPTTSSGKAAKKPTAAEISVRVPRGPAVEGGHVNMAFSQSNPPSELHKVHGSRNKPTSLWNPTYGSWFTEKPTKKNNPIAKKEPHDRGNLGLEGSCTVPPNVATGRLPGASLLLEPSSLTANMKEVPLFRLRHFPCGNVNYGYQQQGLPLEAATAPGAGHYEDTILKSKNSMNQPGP

T1 sequence (Q9UM73 1093-1411): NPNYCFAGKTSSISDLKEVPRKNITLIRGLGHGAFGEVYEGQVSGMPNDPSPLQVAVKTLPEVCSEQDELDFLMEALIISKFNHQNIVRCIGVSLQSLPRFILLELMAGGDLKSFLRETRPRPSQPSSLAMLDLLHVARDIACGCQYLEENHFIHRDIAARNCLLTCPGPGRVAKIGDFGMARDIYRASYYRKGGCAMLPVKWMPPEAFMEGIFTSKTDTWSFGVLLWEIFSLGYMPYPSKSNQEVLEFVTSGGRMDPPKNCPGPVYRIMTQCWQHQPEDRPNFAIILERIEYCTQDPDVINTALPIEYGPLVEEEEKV

As for `COc1nc(CO)ccc1-c1cnc(N)c(O[C@H](C)c2cc(F)ccc2-n2nccn2)c1` [Example 93, (6′-amino-5′-{(1R)-1-[5-fluoro-2-(2H-1,2,3-triazol-2-yl)phenyl]ethoxy}-2-methoxy-3,3′-bipyridin-6-yl)methanol], the inhibition constant Ki (as a rule, the equilibrium dissociation constant of an inhibitor or competing ligand from its target) in assay [1] worked out at 0.43 nM. In assay [2], the 50% inhibitory concentration (IC50) (usually the concentration that inhibits the measured activity by half) was determined as 12.7 nM.

Take `CC(O)c1ncc(-c2cnc(N)c(O[C@H](C)c3cc(F)ccc3-n3nccn3)c2)s1` (stereo partly drawn) [Example 94, 1-[5-(6-amino-5-{(1R)-1-[5-fluoro-2-(2H-1,2,3-triazol-2-yl)phenyl]ethoxy}pyridin-3-yl)-1,3-thiazol-2-yl]ethanol]: the inhibition constant (Ki) in assay [1] is < 0.49 nM. This compound also had an IC50 in assay [2] of 22.1 nM.

On to `Cc1nn(CS(C)(=O)=O)c(C)c1-c1cnc(N)c(O[C@H](C)c2cc(F)ccc2-n2nccn2)c1` [Example 95, 5-{3,5-dimethyl-1-[(methylsulfonyl)methyl]-1H-pyrazol-4-yl}-3-{(1R)-1-[5-fluoro-2-(2H-1,2,3-triazol-2-yl)phenyl]ethoxy}pyridin-2-amine], for which, in assay [1], the Ki worked out at 0.2 nM. Besides, in assay [2], it took 13.8 nM to reach half-maximal inhibition (IC50).

As for `Cc1nc(C(C)O)sc1-c1cnc(N)c(O[C@H](C)c2cc(F)ccc2-n2nccn2)c1` (stereo partly drawn) [Example 96, 1-[5-(6-amino-5-{(1R)-1-[5-fluoro-2-(2H-1,2,3-triazol-2-yl)phenyl]ethoxy}pyridin-3-yl)-4-methyl-1,3-thiazol-2-yl]ethanol], the Ki in assay [1] is < 0.2 nM. Also, the IC50 in assay [2] worked out at 17.1 nM.

For the compound `C[C@@H](Oc1cc(-c2cnc(CO)n2C)cnc1N)c1cc(F)ccc1-n1nccn1` [Example 97, [5-(6-amino-5-{(1R)-1-[5-fluoro-2-(2H-1,2,3-triazol-2-yl)phenyl]ethoxy}pyridin-3-yl)-1-methyl-1H-imidazol-2-yl]methanol], the Ki in assay [1] is 0.327 nM. Moreover, half-maximal inhibition in assay [2] (IC50) required 41.3 nM.

For the compound `C[C@@H](Oc1cc(-c2cnn([C@H]3CCCNC3)c2)cnc1N)c1cc(F)ccc1-n1nccn1` [Example 98, 3-{(1R)-1-[5-fluoro-2-(2H-1,2,3-triazol-2-yl)phenyl]ethoxy}-5-[1-(piperidin-3-yl)-1H-pyrazol-4-yl]pyridin-2-amine], the Ki in assay [1] is < 0.2 nM. In assay [2], this compound displayed an IC50 of 10.8 nM.

On to `C[C@@H](Oc1cc(-c2ccc3c(c2)CCS3(=O)=O)cnc1N)c1cc(F)ccc1-n1nccn1` [Example 99, 5-(1,1-dioxido-2,3-dihydro-1-benzothiophen-5-yl)-3-{(1R)-1-[5-fluoro-2-(2H-1,2,3-triazol-2-yl)phenyl]ethoxy}pyridin-2-amine], for which, in assay [1], the inhibitory constant (Ki) is 1.1 nM. This compound had an IC50 in assay [2] of 13.2 nM.

For the compound `CNCc1ccc(-c2cnc(N)c(O[C@H](C)c3cc(F)ccc3-n3nccn3)c2)c(OC)n1` [Example 100, 5-{(1R)-1-[5-fluoro-2-(2H-1,2,3-triazol-2-yl)phenyl]ethoxy}-2′-methoxy-6′-[(methylamino)methyl]-3,3′-bipyridin-6-amine], the Ki in assay [1] is < 0.2 nM. Further, in assay [2], the IC50 came out at 12.2 nM.

As to `COc1ccc(S(C)(=O)=O)cc1-c1cnc(N)c(O[C@H](C)c2cc(F)ccc2-n2nccn2)c1` [Example 101, 3-{(1R)-1-[5-fluoro-2-(2H-1,2,3-triazol-2-yl)phenyl]ethoxy}-5-[2-methoxy-5-(methylsulfonyl)phenyl] pyridin-2-amine], the inhibitory constant (Ki) in assay [1] is < 0.2 nM. The same compound gave a half-inhibitory concentration (IC50) in assay [2] of 3.21 nM.

As for `COc1ccc(F)cc1C(C)Oc1nc(-c2cc(S(C)(=O)=O)cnc2OC)cnc1N` (centres unmarked) [Example 102, 3-[1-(5-fluoro-2-methoxyphenyl)ethoxy]-5-[2-methoxy-5-(methylsulfonyl)pyridin-3-yl]pyrazin-2-amine], in assay [1], the Ki is 1.21 nM. This compound also showed a 50% inhibitory concentration (IC50) in assay [2] of 89.3 nM.

With `Cc1nc(C(C)(C)O)sc1-c1cnc(N)c(O[C@H](C)c2cc(F)ccc2-n2nccn2)n1` [Example 103, 2-[5-(5-amino-6-{(1R)-1-[5-fluoro-2-(2H-1,2,3-triazol-2-yl)phenyl]ethoxy}pyrazin-2-yl)-4-methyl-1,3-thiazol-2-yl]propan-2-ol], the Ki in assay [1] is < 0.2 nM. The same compound returned an IC50 in assay [2] of 15 nM.

Take `C[C@@H](Oc1cc(-c2csc(CO)n2)cnc1N)c1cc(F)ccc1-n1nccn1` [Example 105, [4-(6-amino-5-{(1R)-1-[5-fluoro-2-(2H-1,2,3-triazol-2-yl)phenyl]ethoxy}pyridin-3-yl)-1,3-thiazol-2-yl]methanol]: the Ki in assay [1] is 4.1 nM. This compound also showed a 50% inhibitory concentration (IC50) in assay [2] of 166 nM.

As to `C[C@@H](Oc1cc(-c2cnc(CO)s2)cnc1N)c1cc(F)ccc1-n1nccn1` [Example 106, [5-(6-amino-5-{(1R)-1-[5-fluoro-2-(2H-1,2,3-triazol-2-yl)phenyl]ethoxy}pyridin-3-yl)-1,3-thiazol-2-yl]methanol], the Ki in assay [1] was 0.68 nM. For the same compound, the IC50 in assay [2] came to 21.5 nM.

Take `Cc1nc(CO)sc1-c1cnc(N)c(O[C@H](C)c2cc(F)ccc2-n2nccn2)c1` [Example 107, [5-(6-amino-5-{(1R)-1-[5-fluoro-2-(2H-1,2,3-triazol-2-yl)phenyl]ethoxy}pyridin-3-yl)-4-methyl-1,3-thiazol-2-yl]methanol]: the Ki in assay [1] is < 0.2 nM. The IC50 in assay [2] was 9.92 nM.

Turning to `CCc1nc(CO)sc1-c1cnc(N)c(O[C@H](C)c2cc(F)ccc2-n2nccn2)c1` [Example 108, [5-(6-amino-5-{(1R)-1-[5-fluoro-2-(2H-1,2,3-triazol-2-yl)phenyl]ethoxy}pyridin-3-yl)-4-ethyl-1,3-thiazol-2-yl]methanol], the Ki in assay [1] was < 0.2 nM. Besides, the 50% inhibitory concentration (IC50) in assay [2] was 9.38 nM.

Take `C[C@@H](Oc1cc(-c2cnc(CS(C)(=O)=O)s2)cnc1N)c1cc(F)ccc1-n1nccn1` [Example 109, 3-{(1R)-1-[5-fluoro-2-(2H-1,2,3-triazol-2-yl)phenyl]ethoxy}-5-{2-[(methylsulfonyl)methyl]-1,3-thiazol-5-yl}pyridin-2-amine]: the Ki in assay [1] turned out to be 0.58 nM. Further, in assay [2], the half-inhibitory concentration (IC50) stood at 9.15 nM.

As to `C[C@@H](Oc1cc(-c2ccc3c(c2)S(=O)(=O)CC3O)cnc1N)c1cc(F)ccc1-n1nccn1` (stereo partly drawn) [Example 110, 6-(6-amino-5-{(1R)-1-[5-fluoro-2-(2H-1,2,3-triazol-2-yl)pheny]ethoxy}pyridin-3-yl)-2,3-dihydro-1-benzothiophene-3-ol 1,1-dioxide], in assay [1], the Ki amounted to 0.47 nM. It took 34.4 nM to reach half-maximal inhibition in assay [2] (IC50).

Take `C[C@@H](Oc1cc(-c2ccc(C(C)(C)O)c(S(C)(=O)=O)c2)cnc1N)c1cc(F)ccc1-n1nccn1` [Example 111, 2-[4-(6-amino-5-{(1R)-1-[5-fluoro-2-(2H-1,2,3-triazol-2-yl)phenyl]ethoxy}pyridin-3-yl)-2-(methylsulfonyl)phenyl]propan-2-ol]: the inhibitory constant (Ki) in assay [1] was < 0.2 nM. In assay [2], this compound came in with an IC50 of 0.622 nM.

Consider `C[C@@H](Oc1cc(-c2cccc(P(C)(C)=O)c2)cnc1N)c1cc(F)ccc1-n1nccn1` [Example 112, 5-[3-(dimethylphosphoryl)phenyl]-3-{(1R)-1-[5-fluoro-2-(2H-1,2,3-triazol-2-yl)phenyl]ethoxy}pyridin-2-amine], for which the inhibition constant (Ki) in assay [1] is 0.203 nM. In assay [2], this compound had an IC50 of 38.1 nM.

As for `C[C@@H](Oc1cc(-c2cccc(S(N)(=O)=O)c2)cnc1N)c1cc(F)ccc1-n1nccn1` [Example 113, 3-(6-amino-5-{(1R)-1-[5-fluoro-2-(2H-1,2,3-triazol-2-yl)phenyl]ethoxy}pyridin-3-yl)benzenesulfonamide], the inhibition constant (Ki) in assay [1] was 0.26 nM. This compound also had a half-maximal inhibitory concentration (IC50) in assay [2] of 10.1 nM.

On to `Cc1cc(-c2cnc(N)c(O[C@H](C)c3cc(F)ccc3-n3nccn3)c2)cc(P(C)(C)=O)c1` [Example 114, 5-[3-(dimethylphosphoryl)-5-methylphenyl]-3-{(1R)-1-[5-fluoro-2-(2H-1,2,3-triazol-2-yl)phenyl]ethoxy}pyridin-2-amine], for which the Ki in assay [1] worked out at 1.3 nM. In assay [2], this compound yielded an IC50 of 89.6 nM.

For the compound `Cc1nc(-c2cnc(N)c(O[C@H](C)c3cc(F)ccc3-n3nccn3)c2)sc1C(C)O` (stereo partly drawn) [Example 115, 1-[2-(6-amino-5-{(1R)-1-[5-fluoro-2-(2H-1,2,3-triazol-2-yl)phenyl]ethoxy}pyridin-3-yl)-4-methyl-1,3-thiazol-5-yl]ethanol], the inhibitory constant (Ki) in assay [1] turned out to be 4.37 nM. The compound further came in with a half-maximal inhibitory concentration (IC50) in assay [2] of 289 nM.

With `C[C@@H](Oc1cc(-c2c[nH]nc2C#N)cnc1N)c1cc(F)ccc1-n1nccn1` [Example 116, 4-(6-amino-5-{(1R)-1-[5-fluoro-2-(2H-1,2,3-triazol-2-yl)phenyl]ethoxy}pyridin-3-yl)-1H-pyrazole-3-carbonitrile], the inhibition constant (Ki) in assay [1] is < 0.2 nM. The compound further showed a 50% inhibitory concentration (IC50) in assay [2] of 4.17 nM.

As for `Cc1ccc(-c2cnc(N)c(O[C@H](C)c3cc(F)ccc3-n3nccn3)c2)cn1` [Example 117, 5-{(1R)-1-[5-fluoro-2-(2H-1,2,3-triazol-2-yl)phenyl]ethoxy}-6′-methyl-3,3′-bipyridin-6-amine], the Ki in assay [1] turned out to be 0.77 nM. This compound yielded an IC50 in assay [2] of 10.3 nM.

On to `COc1cc(C(N)=O)ccc1-c1cnc(N)c(O[C@H](C)c2cc(F)ccc2-n2nccn2)c1` [Example 118, 4-(6-amino-5-{(1R)-1-[5-fluoro-2-(2H-1,2,3-triazol-2-yl)phenyl]ethoxy}pyridin-3-yl)-3-methoxybenzamide], for which the Ki in assay [1] was 0.26 nM. In addition, the concentration for half-maximal inhibition (IC50) in assay [2] was found to be 9.29 nM.

For the compound `C[C@@H](Oc1cc(-c2ccc(CO)c(S(C)(=O)=O)c2)cnc1N)c1cc(F)ccc1-n1nccn1` [Example 119, [4-(6-amino-5-{(1R)-1-[5-fluoro-2-(2H-1,2,3-triazol-2-yl)phenyl]ethoxy}pyridin-3-yl)-2-(methylsulfonyl)phenyl]methanol], the inhibitory constant (Ki) in assay [1] is < 0.2 nM. In addition, inhibition in assay [2] was half-maximal at 4.39 nM (IC50).

`Cc1nc(C#N)c(-c2cnc(N)c(O[C@H](C)c3cc(F)ccc3-n3nccn3)c2)o1` [Example 120, 5-(6-amino-5-{(1R)-1-[5-fluoro-2-(2H-1,2,3-triazol-2-yl)phenyl]ethoxy}pyridin-3-yl)-2-methyl-1,3-oxazole-4-carbonitrile]: in assay [1], the inhibition constant Ki turned out to be 2.14 nM. In assay [2], this compound returned a 50% inhibitory concentration (IC50) of 161 nM.

On to `C[C@@H](Oc1cc(-c2ccc(O)nc2)cnc1N)c1cc(F)ccc1-n1nccn1` [Example 121, 6′-amino-5′-{(1R)-1-[5-fluoro-2-(2H-1,2,3-triazol-2-yl)phenyl]ethoxy}-3,3′-bipyridin-6-ol], for which the Ki in assay [1] is 1.04 nM. Moreover, in assay [2], the IC50 is 71.3 nM.

The values are drawn from patent US8916593B2, “Alkoxy-substituted 2-aminopyridines as ALK inhibitors” (Pfizer Inc., priority 2010, dated 2014).
